Each structure is given as a SMILES string.

The assay relates to lipid oxidation in Jinhua ham. As to the kind of experiment: Antioxidation and sensory quality of Jinhua ham slices (AV, POV, chromatic aberration). To be noted: ham slice soaked 2 min in 0.03% solution, stored at 50±1° C. for 11 days, versus control group. The procedure:
AOB was dissolved in water to produce a 0.03% solution, TBHQ (previously dissolved in ethanol) in the same concentration as control. A slice of Jinhua ham with a thickness of 1 cm was soaked for 2 min, and the effects of AOB on antioxidation and sensory quality of the slice of Jinhua ham were compared.

Take `CC(C)(C)c1cc(O)ccc1O` [TBHQ, tert-butyl hydroquinone]: the “lipid oxidation (AV and POV)” value was “significantly inhibited”.

For the origin of these results see patent publication US20080233242A1, “Antioxidant of Bamboo Leaves and Its Uses” (priority 2003, published 2008).
